Laboratory results reported in ChEMBL document CHEMBL3044818, “Fungicide resistance status in French populations of the wheat eyespot fungi Oculimacula acuformis and Oculimacula yallundae” (Pest Manag Sci, 2013).
Values after ≈ are worked out from the molar mass of the structure shown.

Legend:
Oculimacula yallundae [1] = assay: Resistance index, ratio of EC50 for sterol 14alpha-demethylation inhibitor-resistant Oculimacula yallundae TriR1 to EC50 for wild type Oculimacula yallundae TriS by mycelial growth inhibition assay; type: functional
Oculimacula acuformis [2] = assay: Fungicidal activity against Oculimacula acuformis assessed as inhibition of mycelial growth in presence of 10 g glucose incubated at 19 degC in dark for 4 weeks; type: functional, organism-based; conditions: 672 h
[3] = Selectivity index, ratio of EC50 for Oculimacula acuformis to EC50 for Oculimacula yallundae in presence of 10 g glucose by mycelial growth inhibition assay; type: functional
Oculimacula yallundae [4] = assay: Fungicidal activity against Oculimacula yallundae assessed as inhibition of mycelial growth in presence of 10 g glucose incubated at 19 degC in dark for 4 weeks; type: functional, organism-based; conditions: 672 h
Oculimacula yallundae [5] = assay: Resistance index, ratio of EC50 for sterol 14alpha-demethylation inhibitor-resistant Oculimacula yallundae TriR2 to EC50 for wild type Oculimacula yallundae TriS by mycelial growth inhibition assay; type: functional
Oculimacula yallundae [6] = assay: Resistance index, ratio of EC50 for sterol 14alpha-demethylation inhibitor-resistant Oculimacula yallundae MDR to EC50 for wild type Oculimacula yallundae TriS by mycelial growth inhibition assay; type: functional
Oculimacula yallundae [7] = assay: Fungicidal activity against Oculimacula yallundae assessed as inhibition of germ tube elongation incubated at 19 degC in dark for 48 hr; type: functional, organism-based
Oculimacula yallundae [8] = assay: Resistance index, ratio of EC50 for sterol 14alpha-demethylation inhibitor-resistant Oculimacula yallundae MDR to EC50 for sterol 14alpha-demethylation inhibitor-resistant Oculimacula yallundae TriR1 by mycelial growth inhibition assay; type: functional
Oculimacula yallundae [9] = assay: Resistance index, ratio of EC50 for sterol 14alpha-demethylation inhibitor-resistant Oculimacula yallundae TriR2 to EC50 for sterol 14alpha-demethylation inhibitor-resistant Oculimacula yallundae TriR1 by mycelial growth inhibition assay; type: functional
Oculimacula acuformis [10] = assay: Fungicidal activity against Oculimacula acuformis assessed as inhibition of germ tube elongation incubated at 19 degC in dark for 48 hr; type: functional, organism-based
Oculimacula yallundae [11] = assay: Resistance index, ratio of EC50 for sterol 14alpha-demethylation inhibitor-resistant Oculimacula yallundae TriR1 to EC50 for wild type Oculimacula yallundae TriS by germ tube elongation assay; type: functional
Oculimacula yallundae [12] = assay: Resistance index, ratio of EC50 for sterol 14alpha-demethylation inhibitor-resistant Oculimacula yallundae TriR2 to EC50 for wild type Oculimacula yallundae TriS by germ tube elongation assay; type: functional
Oculimacula yallundae [13] = assay: Resistance index, ratio of EC50 for sterol 14alpha-demethylation inhibitor-resistant Oculimacula yallundae TriR2 to EC50 for sterol 14alpha-demethylation inhibitor-resistant Oculimacula yallundae TriR1 by germ tube elongation assay; type: functional
Oculimacula yallundae [14] = assay: Resistance index, ratio of EC50 for sterol 14alpha-demethylation inhibitor-resistant Oculimacula yallundae MDR to EC50 for wild type Oculimacula yallundae TriS by germ tube elongation assay; type: functional
Oculimacula yallundae [15] = assay: Resistance index, ratio of EC50 for sterol 14alpha-demethylation inhibitor-resistant Oculimacula yallundae MDR to EC50 for sterol 14alpha-demethylation inhibitor-resistant Oculimacula yallundae TriR1 by germ tube elongation assay; type: functional
Oculimacula yallundae [16] = assay: Fungicidal activity against prochloraz-susceptible Oculimacula yallundae isolate ProS assessed as inhibition of germ tube elongation incubated at 19 degC in dark for 48 hr; type: functional, organism-based
[17] = Selectivity index, ratio of EC50 for Oculimacula acuformis to EC50 for Oculimacula yallundae by germ tube elongation inhibition assay; type: functional
Oculimacula yallundae [18] = assay: Resistance index, ratio of EC50 for prochloraz-resistant Oculimacula yallundae isolate ProR2 to EC50 for prochloraz-susceptible Oculimacula yallundae isolate ProS by mycelial growth inhibition assay; type: functional
Oculimacula yallundae [19] = assay: Resistance index, ratio of EC50 for prochloraz-resistant Oculimacula yallundae isolate ProR2 to EC50 for prochloraz-susceptible Oculimacula yallundae isolate ProS by germ tube elongation inhibition assay; type: functional
Oculimacula yallundae [20] = assay: Fungicidal activity against prochloraz-susceptible Oculimacula yallundae isolate ProS assessed as inhibition of mycelial growth in presence of 10 g glucose incubated at 19 degC in dark for 4 weeks; type: functional, organism-based; conditions: 672 h
Oculimacula yallundae [21] = assay: Resistance index, ratio of EC50 for prochloraz-resistant Oculimacula yallundae isolate ProR1 to EC50 for prochloraz-susceptible Oculimacula yallundae isolate ProS by mycelial growth inhibition assay; type: functional
Oculimacula yallundae [22] = assay: Resistance index, ratio of EC50 for prochloraz-resistant Oculimacula yallundae isolate ProR1 to EC50 for prochloraz-susceptible Oculimacula yallundae isolate ProS by germ tube elongation inhibition assay; type: functional

| SMILES | Ratio EC50 (Oculimacula yallundae [1]) | EC50 (Oculimacula acuformis [2]) [µg/mL] | Ratio EC50 [3] | EC50 (Oculimacula yallundae [4]) [µg/mL] | Ratio EC50 (Oculimacula yallundae [5]) | Ratio EC50 (Oculimacula yallundae [6]) | EC50 (Oculimacula yallundae [7]) [µg/mL] | Ratio EC50 (Oculimacula yallundae [8]) | Ratio EC50 (Oculimacula yallundae [9]) | EC50 (Oculimacula acuformis [10]) [µg/mL] | Ratio EC50 (Oculimacula yallundae [11]) | Ratio EC50 (Oculimacula yallundae [12]) | Ratio EC50 (Oculimacula yallundae [13]) | Ratio EC50 (Oculimacula yallundae [14]) | Ratio EC50 (Oculimacula yallundae [15]) | EC50 (Oculimacula yallundae [16]) [µg/mL] | Ratio EC50 [17] | Ratio EC50 (Oculimacula yallundae [19]) | Ratio EC50 (Oculimacula yallundae [22]) | further results |
| --- | --- | --- | --- | --- | --- | --- | --- | --- | --- | --- | --- | --- | --- | --- | --- | --- | --- | --- | --- | --- |
| COc1cc(C)c(C(=O)c2c(OC)ccc(Br)c2C)c(OC)c1OC [METRAFENONE] | 1 | 0.08 | 0.1 | 0.8 | 1.3 | 1.1 | > 25 | 1.1 | 1.3 | > 25 |  |  |  |  |  |  |  |  |  |  |
| CC(C)CC(C)c1sccc1NC(=O)c1cn(C)nc1C(F)(F)F (stereo unspecified) [PENTHIOPYRAD] |  |  |  |  |  |  | 0.02 (≈ 0.0556 µM) |  |  |  | 1 | 1 | 1 | 12 | 12 |  |  |  |  |  |
| CCCN(CCOc1c(Cl)cc(Cl)cc1Cl)C(=O)n1ccnc1 [PROCHLORAZ] | 1.5 | 0.04 | 0.8 | 0.05 | 30 | 3 | 0.005 (≈ 0.0133 µM) | 2 | 20 | 0.004 (≈ 0.0106 µM) | 1.4 | 240 | 171 | 100 | 71 | 0.004 (≈ 0.0106 µM) | 0.8 | 75 | 63 | Ratio EC50 (Oculimacula yallundae [18]): 25; EC50 (Oculimacula yallundae [20]): 0.04 µg/mL; Ratio EC50 (Oculimacula yallundae [21]): 25 |
| OC(Cc1ccccc1Cl)(Cn1nc[nH]c1=S)C1(Cl)CC1 (stereo unspecified) [PROTHIOCONAZOLE] | 2.5 | 0.5 | 1.3 | 0.4 | 2 | 4.5 | 0.08 (≈ 0.232 µM) | 1.8 | 0.8 | 0.06 (≈ 0.174 µM) | 1.3 | 1.3 | 1 | 38 | 30 | 0.06 (≈ 0.174 µM) | 0.8 | 1.5 | 1.2 | Ratio EC50 (Oculimacula yallundae [18]): 2.4; EC50 (Oculimacula yallundae [20]): 0.5 µg/mL; Ratio EC50 (Oculimacula yallundae [21]): 1.6 |
| Cc1cc(C)nc(Nc2ccccc2)n1 [PYRIMETHANIL] |  |  |  |  |  |  | 0.1 (≈ 0.502 µM) |  |  |  | 1 | 1.2 | 1.2 | 12 | 12 |  |  |  |  |  |
| CC(C)(C)C(O)(CCc1ccc(Cl)cc1)Cn1cncn1 (stereo unspecified) [TEBUCONAZOLE] | 20 | 4 | 20 | 0.2 | 30 | 25 | 0.03 (≈ 0.0975 µM) | 1.3 | 1.5 | 0.5 (≈ 1.62 µM) | 67 | 100 | 1.5 | 267 | 4 | 0.5 (≈ 1.62 µM) | 17 | 5 | 3 |  |
| CN(C/C=C/C#CC(C)(C)C)Cc1cccc2ccccc12 [TERBINAFINE] |  | 0.25 | 0.8 | 0.3 |  |  | 0.008 (≈ 0.0275 µM) |  |  | 0.01 (≈ 0.0343 µM) |  |  |  |  |  |  | 1.3 |  |  |  |
| Cc1cccc(N(C)C(=S)Oc2ccc3ccccc3c2)c1 [TOLNAFTATE] |  |  |  |  |  |  | 0.3 (≈ 0.976 µM) |  |  |  | 1.3 | 1 | 0.8 | >30 | >25 |  |  |  |  |  |
| CCCOC/C(=N\c1ccc(Cl)cc1C(F)(F)F)n1ccnc1 [TRIFLUMIZOLE] |  | > 25 | > 30 | 0.8 |  |  | 0.07 (≈ 0.202 µM) |  |  | 9 (≈ 26 µM) | 214 | 71 | 0.3 | 243 | 1.1 | 9 (≈ 26 µM) | 129 | 0.8 | 0.1 |  |
